Source: patent US20160185682A1, “NITRIFICATION INHIBITOR COMPOSITIONS AND METHODS FOR PREPARING THE SAME” (Dow AgroSciences LLC, priority 2014, published 2016)

Tests used:
[1] = at 230 Celsius; cited from earlier work
[2] = format: physicochemical
From the text: (§1) In some embodiments of the present disclosure, in order to measure the diffusion of nitrification inhibitors through volatilization barriers and, therefore, provide diffusion constants to estimate the ultimate loss of nitrification inhibitors to volatilization, Fourier transform infrared spectroscopy operating in attenuated total reflectance mode (“ATR-FTIR”) can be employed to probe diffusion of nitrification inhibitors, such as, for example, nitrapyrin, through polymeric materials.
(§2) A Nicolet 4700 Fourier transform infrared spectrometer (“FTIR”) with SCFGG using attenuated total reflectance (“ATR”) accessory (“Specac”) was utilized in the studies presented herein. Nitrapyrin technical grade manufactured by Dow AgroSciences LLC was used in some of the experiments presented herein. […]
(§3) Kollidon VA64 was purchased as a vinyl pyrrolidone/vinyl acetate 60/40 copolymer from Sigma Aldrich. […] Film thickness was measured using a Dektak profilometer (Veeco). […]
(§4) Films were allowed to equilibrate in the FTIR chamber for thirty minutes before the experiments were started. […] A single-beam spectrum was acquired of the film for use as a background spectrum, after which absorbance spectra were continuously recorded throughout the experiment. Peak heights were determined using a macro and data were fit according to the model as described below. […]

[3] = ATR-FTIR diffusion of nitrapyrin through polymer film, diffusion constant fitted by Fick's second law model; format: physicochemical
From the text: as §1, §2, §3, §4

Clc1cccc(C(Cl)(Cl)Cl)n1 [nitrapyrin, 2-chloro-6-(trichloromethyl)pyridine]
vapor pressure [1]: 2.8×10^−3 mm Hg
diffusion constant for nitrapyrin through polymer film (printed as 'partition coefficient') [2]: 10^−3-10^−2 μm^2/s
diffusion profile of nitrapyrin through film ([3]; Kollidon VA64 film, 30 μm, curve not well-fitting a standard diffusion model): slow through the film before it rapidly equilibrates
diffusion constant ([3]; Polyvinyl pyrollidone (K90) film): 0.1-1 μm^2/s
